The text below walks through data of article PMC6580371 (ACS Medicinal Chemistry Letters, 2019).

Like-named read-outs stand apart in the source and are kept apart here.

The nature of data set [1]: in vivo. To be noted: dog, po, 2 mg/kg.
The format of data set [2] is in vitro ADME. To be noted: monkey.
The format of data set [3] is in vitro ADME. The settings on record: human.
The format of data set [4] is in vitro ADME. To be noted: rat.
Data set [5] is classed as in vivo. The settings on record: all species (rat, dog, monkey).
Data set [6] is described as follows: in vivo. To be noted: monkey, iv.

Regarding `O=C(N[C@H]1CCc2cc(F)cc(F)c2NC1=O)c1n[nH]c(Cc2ccccc2)n1` [Compound 6, (S)-5-benzyl-N-(7,9-difluoro-2-oxo-2,3,4,5-tetrahydro-1H-benzo[b]azepin-3-yl)-1H-1,2,4-triazole-3-carboxamide], the predicted human clearance result is recorded as “low clearance” and the predicted human volume entry was “moderate volume”. In addition, the highest level in the data set “in vivo [1]” (Cmax) was 910 ± 130 ng/mL. Besides, where the note is “40 mg twice daily”, the “predicted human AUC” value is 1700 ng·h/mL. The “predicted human AUC” value (273 mg daily) was 11700 ng·h/mL. In addition, the “predicted human terminal half-life” value (human) is reported as ~3.3 h. Besides, the turnover in hepatocytes result in data set [2] is “low turnover”. Besides, the turnover in hepatocytes result in data set [3] is recorded as “low turnover”. For the same compound, the turnover in hepatocytes result in data set [4] is listed as “moderate turnover”. The “clearance as % liver blood flow” value in data set [5] was ≤ 35 % liver blood flow. Besides, the clearance (usually the volume of plasma or blood freed of the substance per unit of time) in “in vivo [6]” came to 6.4 ± 0.5 mL/min/kg.
